Reference: US12570697B2, “Cyclic peptide useful in the treatment of cancer” (Syntherix Limited, priority 2019, dated 2026)
pIC50: −log10 of the molar value. Entries after “also recorded” stand apart in the source; their conditions may differ. Square brackets hold non-standard residues; d marks the D form. Ends that are not written are not given here. Sar = CNCC(=O)O

Key:
[1] = tested on: NCI-H460 cells; experiment: viability assay of CLIP cyclised peptides on NCI-H460 cells (Example 3, Table 2); type: cell-based, human; conditions: for cytotoxic activity against NCIH460 cells (in words): with and without Nanocin-PRO
Protocol: The following protocol was used: • 1) NCI-H460 cells were grown in Ham's F12 media supplemented with 10% FBS. • 2) Cells were harvested and seeded into 96-well plates at 500 cells per well. • 3) Peptides were diluted 1:2 from DMSO stock solutions to generate a 9-point dose range from a top concentration of 300 μM. Final DMSO concentration was constant at 1% (v/v). • 4) In line with the supplied Nanocin-PRO protocol, diluted peptides were incubated with Nanocin-PRO in media for 20 minutes prior to addition to cells. Nanocin-PRO was used at a final assay concentration of 0.2 μl per well. • 5) Cells were grown in the presence of peptide for 96 hours at 37° C., 5% CO2 in a humidified atmosphere. • 6) After 96 h, Alamar blue 10% (v/v) was added, incubated for a further 4 h and fluorescent product detected using a BMG FLUOstar plate reader. • 7) Media only background readings were subtracted before data was analysed using a 4-parameter logistic equation in GraphPad Prism.
Viability assays of the CLIP cyclised peptides were performed to examine the effect of four HILRa clipped peptides on the viability of NCIH460 cells (up to three isomers for each of the peptides). […] Results for HILRa 16A, 16B, 16C and HILRa 17A, 17B and 17C are depicted in FIG. 2.
Assays were performed in the presence and absence of the peptide transfection reagent Nanocin-PRO.

[2] = tested on: human non-small cell lung cancer cells (NCIH-460); experiment: killing of NCIH-460 cells by CLIPS-cyclised peptides of different warhead length (Table 1); type: cell-based
Protocol: The inventor undertook testing of the effect of various peptides which were cyclised using CLIPS technology on the killing of human non-small cell lung cancer cells (NCIH-460) in vitro. For each of the peptides, between two and four isomer fractions were received, giving a total of 12 peptide entities tested.
The following warhead lengths, obtained by adding flanking sarcosine residues, were tested: […]

[3] = tested on: H460 human non-small cell lung cancer cell lines; conditions: cited from earlier work
[4] = 0.2 μl Nanocin-PRO per well, 96 h

Row | Compound | % inhibition at 300 μM [1, 4] | % inhibition at 300 μM ([1]; No Nanocin-PRO, 96 h) | % inhibition at 1 mM ([2]; 0.2 μl Nanocin-PRO per well) | % inhibition at 1 mM ([2]; No Nanocin-PRO) | other results
1 | Ac-CDacHcaSarNapHcaNapC-NH2 [HILRa CL-16-B] | 0.0% | 14.1% | – | – | cytotoxic activity against NCIH460 cells (in words) [1]: completely removed the cell killing effect; also recorded: low detectable cancer cell-necrotic activity
2 | COc1ccc2c(C[C@@H]3NC(=O)[C@@H](NC(C)=O)CSCc4cccc(c4)CSC[C@@H](C(N)=O)NC(=O)CC(c4ccc5ccccc5c4)NC(=O)[C@H](CCCNC(=N)N)NC(=O)C4N(CCC4(C)C)C(=O)CN(C)C(=O)[C@H](CCCNC(=N)N)NC3=O)cc(=O)oc2c1 (single isomer, unassigned) [HILRa CL-15-D, Ac-C[Dac]R[Sar][dmPro]R[Nap]C-NH2] | 89.1% | 25.2% | – | – | –
3 | Ac-C[Sar][Sar]PRGPKP[Sar][Sar]C-NH2 (cysteine pairing not given here) [HILRa-CL-09] | – | – | 3.0% | 1.1% | –
4 | Ac-CPRGPKPC-NH2 [HILRa-CL-07] | – | – | 1.5% | 0.0% | –
5 | Ac-CDacHcaSarNapHcaNapC-NH2 [HILRa CL-16-A] | 0.0% | 9.9% | – | – | cytotoxic activity against NCIH460 cells (in words) [1]: completely removed the cell killing effect; also recorded: low detectable cancer cell-necrotic activity
6 | Ac-C[Sar]PRGPKP[Sar]C-NH2 (CXPRGPKPXC; N-acetyl; C-amide; sarcosines; HILRa-CL-08 Synthesized; Sar (2)..(2) X = Sarcosine; Sar (9)..(9) X = Sarcosine) | – | – | 3.2% | 0.0% | –
7 | CC(=O)O[C@H]1C(=O)[C@@]2(C)[C@H]([C@H](OC(=O)c3ccccc3)[C@]3(O)C[C@H](OC(=O)[C@H](O)[C@@H](NC(=O)c4ccccc4)c4ccccc4)C(C)=C1C3(C)C)[C@]1(OC(C)=O)CO[C@@H]1C[C@@H]2O [Paclitaxel, reference compound] | – | – | – | – | pIC50 ([2]; Homo sapiens, NCI-H460, Paclitaxel control, printed in the 0.2 μl Nanocin-PRO per well column): 8.13; pIC50 ([1]; Homo sapiens, NCI-H460, Paclitaxel control, No Nanocin-PRO column): 8.31
8 | Ac-C[Sar][Sar]PRGPRP[Sar][Sar]C-NH2 (CXXPRGPRPXXC; N-acetyl; C-amide; sarcosines; HILRa-CL-03 Synthesized; Sar (2)..(2) X = Sarcosine; Sar (3)..(3) X = Sarcosine; Sar (10)..(10) X = Sarcosine; Sar (11)..(11) X = Sarcosine) | – | – | 9.5% | 0.0% | –
9 | COc1ccc2c(C[C@@H]3NC(=O)[C@@H](NC(C)=O)CSCc4cccc(c4)CSC[C@@H](C(N)=O)NC(=O)CC(c4ccc5ccccc5c4)NC(=O)[C@H](CCCNC(=N)N)NC(=O)CC(c4ccc5ccccc5c4)NC(=O)CN(C)C(=O)[C@H](CCCNC(=N)N)NC3=O)cc(=O)oc2c1 (single isomer, unassigned) [HILRa CL-17-C, Ac-C[Dac]R[Sar][Nap]R[Nap]C-NH2] | 99.4% | 99.6% | – | – | pIC50 ([1]; 0.2 μl Nanocin-PRO per well, 96 h, values in brackets approximate): ~6.06
10 | PRGPRPVALKLALKLAL [HILR-001] | – | – | – | – | pIC50 ([3]; as described in WO 2009/112536): 3.70; killing of H460 cells versus primary diploid human fibroblasts, keratinocytes or MRC5 cells ([3]; in vitro, WO 2009/112536): selective killing
11 | Ac-CPRGPRPC-NH2 [HILRa-CL-01, CLIPS-cyclised peptide] | – | – | 12.9% | 0.0% | % inhibition at 1 mM ([2]; 0.2 μl Nanocin-PRO per well, listed as ‘clipped’ Pro-Arg-Gly-Pro-Arg-Pro warhead): over 10%
12 | COc1ccc2c(C[C@@H]3NC(=O)[C@@H](NC(C)=O)CSCc4cccc(c4)CSC[C@@H](C(N)=O)NC(=O)CC(c4ccc5ccccc5c4)NC(=O)[C@H](CCCNC(=N)N)NC(=O)C4N(CCC4(C)C)C(=O)CN(C)C(=O)[C@H](CCCNC(=N)N)NC3=O)cc(=O)oc2c1 (single isomer, unassigned) [HILRa CL-15-A, Ac-C[Dac]R[Sar][dmPro]R[Nap]C-NH2] | 84.5% | 22.7% | – | – | –
13 | Ac-C[Sar]PKGPKP[Sar]C-NH2 (CXPKGPKPXC; N-acetyl; C-amide; sarcosines; HILRa-CL-11 Synthesized; Sar (2)..(2) X = Sarcosine; Sar (9)..(9) X = Sarcosine) | – | – | 1.2% | 0.0% | –
14 | COc1ccc2c(C[C@@H]3NC(=O)[C@@H](NC(C)=O)CSCc4cccc(c4)CSC[C@@H](C(N)=O)NC(=O)CC(c4ccc5ccccc5c4)NC(=O)[C@H](CCCNC(=N)N)NC(=O)CC(c4ccc5ccccc5c4)NC(=O)CN(C)C(=O)[C@H](CCCNC(=N)N)NC3=O)cc(=O)oc2c1 (single isomer, unassigned) [HILRa CL-17-A, Ac-C[Dac]R[Sar][Nap]R[Nap]C-NH2] | 98.7% | 90.3% | – | – | –
